The assay deals with T1, recombinant human TGF-β1 (Homo sapiens, UniProt P01137).
T1 construct: purchased R&D systems
Briefly: SBE reporter assay in SBE reporter-HEK293 cells, TGF-β1 stimulation. Particulars: TGF-β1 0.13 nM, 18 hours; for inhibition at 75 pM: peptide 0.075 nM; for inhibition at 0.00075 µM: peptide 0.75 nM; for inhibition at 0.0075 µM: peptide 7.5 nM; for inhibition at 0.075 µM: peptide 75.0 nM. Format: cell-based. An excerpt:
The inhibitory activity of the peptide can be calculated without limitation while the maximum signal induced by TGF-β is set to 0% inhibition and no stimulation is set to 100% inhibition. When the peptide is used at an appropriate concentration, for example, at the optimal concentration, the inhibitory activity is not limited but the inhibition is 5% or more, 10% or more, 20% or more, 30% or more, 40% or more, 50% or more, 60% or more, 70% or more, 80% or more, or 90% or more.
In this Example, the TGF-β1 inhibitory activity of the peptide of the present invention consisting of the amino acid sequence set forth in SEQ ID NOs: 2-33 synthesized in Examples 1 to 5 and 7 was evaluated by an SBE reporter assay using the SBE reporter-HEK293 cell system (BP Bioscience) as follows.
SBE reporter-HEK293 cells were cultured in E-MEM (Wako) containing 10% FBS (Sigma). The cells were detached using Accutase (Innovative Cell Technologies), suspended in E-MEM containing 0.5% FBS, seeded onto a 96-well plate(s) at a concentration of 45,000 cells per well, and cultured overnight. The next day, the peptide was added and allowed to stand for 20 min, and recombinant human TGF-β1 (R&D systems) or recombinant human TGF-β2 (R&D systems) was then added at 0.13 nM and cultured for 18 hours.
Thereafter, luciferase assay ONE-Glo reagent was added to each well and the plate was shaken for 5 min. A SpectraMax Paradigm multimode microplate reader (Molecular Devices) was then used for signal detection. The obtained signals were analyzed by GraphPad Prism. The inhibitory activity of the peptide was calculated while the maximum signal induced by TGF-β was set to 0% inhibition and no stimulation was set to 100% inhibition.
(In general: In a reporter assay the amount or activity of a reporter protein is the signal.)

The inhibition is the drop in the measured response relative to a control, in per cent.

Starred links: 1 amine or outer side, 2 acyl side, 3 side chain; linkers in the order of their positions; H or OH if unused. Positions of bridges follow the written chain, without caps; N, C: chain ends. Non-standard residues stand in square brackets, D forms with d. Residues, ends and D or L forms follow the SMILES beside them. Groups on a side chain read outwards from the residue. *: point of attachment. Meglumine = CN(C[C@H](O)[C@@H](O)[C@H](O)[C@H](O)CO)*; Trp(6-aza) = N[C@@H](Cc1c[nH]c2cnccc12)C(=O)O; Trp(7-aza) = N[C@@H](Cc1c[nH]c2ncccc12)C(=O)O; Piperazinyl(4-CH2COOH) = O=C(O)CN1CCN(*)CC1; 1Nal = N[C@@H](Cc1cccc2ccccc12)C(=O)O; Gly(NCH2CH2Ph) = O=C(O)CNCCc1ccccc1; 4Pal = N[C@@H](Cc1ccncc1)C(=O)O; CO = O=C([*:1])[*:2]

T1 sequence (P01137 279-390 limits assumed): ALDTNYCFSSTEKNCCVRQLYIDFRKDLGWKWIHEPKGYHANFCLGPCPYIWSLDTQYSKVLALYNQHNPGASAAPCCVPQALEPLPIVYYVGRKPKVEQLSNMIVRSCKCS

As for `CC(C)[C@@H]1NC(=O)CN(CCc2ccccc2)C(=O)[C@H](CC(=O)O)NC(=O)[C@H](CC(=O)O)NC(=O)[C@H](Cc2ccc(O)cc2)NC(=O)[C@H](C(C)C)NC(=O)[C@H](CC(N)=O)NC(=O)[C@H](C(C)C)NC(=O)[C@H](C(C)C)NC(=O)[C@H](Cc2c[nH]c3ccccc23)NC(=O)[C@H](Cc2ccccc2)NC(=O)CSC[C@@H](C(=O)NCC(N)=O)NC(=O)[C@H](C(C)C)NC(=O)[C@H](Cc2c[nH]cn2)NC(=O)[C@H](Cc2ccc(O)cc2)NC(=O)[C@H](Cc2cccc3ccccc23)NC1=O` [TGFb1_003] ({CH2CO}-FWVVNVYDD[Gly(NCH2CH2Ph)]V[1Nal]YHVCG-NH2; thioether N-16), the inhibition at 75 pM amounted to 1.6%, the inhibition at 0.00075 µM amounted to 65.2%, the inhibition at 0.0075 µM stood at 97.3% and the inhibition at 0.075 µM stood at 98.8%.
`CC(C)[C@@H]1NC(=O)CN(CCc2ccccc2)C(=O)[C@H](CC(=O)O)NC(=O)[C@H](CC(=O)O)NC(=O)[C@H](Cc2ccc(O)cc2)NC(=O)[C@H](C(C)C)NC(=O)[C@H](CC(N)=O)NC(=O)[C@H](C(C)C)NC(=O)[C@H](C(C)C)NC(=O)[C@H](Cc2c[nH]c3cnccc23)NC(=O)[C@H](Cc2ccccc2)NC(=O)CSC[C@@H](C(=O)NCC(N)=O)NC(=O)[C@H](C(C)C)NC(=O)[C@H](Cc2c[nH]cn2)NC(=O)[C@H](Cc2ccc(O)cc2)NC(=O)[C@H](Cc2cccc3ccccc23)NC1=O` [TGFb1_004] ({CH2CO}-F[Trp(6-aza)]VVNVYDD[Gly(NCH2CH2Ph)]V[1Nal]YHVCG-NH2; thioether N-16): the inhibition at 75 pM is 0%, the inhibition at 0.00075 µM was found to be 0.9%, the inhibition at 0.0075 µM came out at 70.1% and the inhibition at 0.075 µM was found to be 94.9%.
Turning to `CC(C)[C@@H]1NC(=O)CN(CCc2ccccc2)C(=O)[C@H](CC(=O)O)NC(=O)[C@H](CC(=O)O)NC(=O)[C@H](Cc2ccc(O)cc2)NC(=O)[C@H](C(C)C)NC(=O)[C@H](CC(N)=O)NC(=O)[C@H](C(C)C)NC(=O)[C@H](C(C)C)NC(=O)[C@H](Cc2c[nH]c3ncccc23)NC(=O)[C@H](Cc2ccccc2)NC(=O)CSC[C@@H](C(=O)NCC(N)=O)NC(=O)[C@H](C(C)C)NC(=O)[C@H](Cc2c[nH]cn2)NC(=O)[C@H](Cc2ccc(O)cc2)NC(=O)[C@H](Cc2cccc3ccccc23)NC1=O` [TGFb1_005] ({CH2CO}-F[Trp(7-aza)]VVNVYDD[Gly(NCH2CH2Ph)]V[1Nal]YHVCG-NH2; thioether N-16), the inhibition at 75 pM was 0.4%, the inhibition at 0.00075 µM is 47%, the inhibition at 0.0075 µM is 90.8% and the inhibition at 0.075 µM is 98.9%.
On the same counts, the results for `CC(C)[C@@H]1NC(=O)CN(CCc2ccccc2)C(=O)[C@H](CC(=O)O)NC(=O)[C@H](CC(=O)O)NC(=O)[C@H](Cc2ccncc2)NC(=O)[C@H](C(C)C)NC(=O)[C@H](CC(N)=O)NC(=O)[C@H](CCCCN)NC(=O)[C@H](C(C)C)NC(=O)[C@H](Cc2cccc3ccccc23)NC(=O)[C@H](Cc2ccccc2)NC(=O)CSC[C@@H](C(=O)NCC(N)=O)NC(=O)[C@H](C(C)C)NC(=O)[C@H](Cc2c[nH]cn2)NC(=O)[C@H](Cc2ccc(O)cc2)NC(=O)[C@H](Cc2cccc3ccccc23)NC1=O` [TGFb1_007] ({CH2CO}-F[1Nal]VKNV[4Pal]DD[Gly(NCH2CH2Ph)]V[1Nal]YHVCG-NH2; thioether N-16) are 0.1%, 37.5%, 83.5% and 96.7%.
As for `CC(C)[C@@H]1NC(=O)CN(CCc2ccccc2)C(=O)[C@H](CC(=O)O)NC(=O)[C@H](CC(=O)O)NC(=O)[C@H](Cc2ccncc2)NC(=O)[C@H](C(C)C)NC(=O)[C@H](CC(N)=O)NC(=O)[C@H](C(C)C)NC(=O)[C@H](C(C)C)NC(=O)[C@H](Cc2c[nH]c3ncccc23)NC(=O)[C@H](Cc2ccccc2)NC(=O)CSC[C@@H](C(=O)NCC(N)=O)NC(=O)[C@H](C(C)C)NC(=O)[C@H](Cc2c[nH]cn2)NC(=O)[C@H](Cc2ccc(O)cc2)NC(=O)[C@H](Cc2cccc3ccccc23)NC1=O` [TGFb1_008] ({CH2CO}-F[Trp(7-aza)]VVNV[4Pal]DD[Gly(NCH2CH2Ph)]V[1Nal]YHVCG-NH2; thioether N-16), the inhibition at 75 pM came out at 3.8%, the inhibition at 0.00075 µM came out at 56.8%, the inhibition at 0.0075 µM was 94.6% and the inhibition at 0.075 µM is 98.4%.
With `CC(C)[C@@H]1NC(=O)CN(CCc2ccccc2)C(=O)[C@H](CC(=O)O)NC(=O)[C@H](CC(=O)O)NC(=O)[C@H](Cc2ccncc2)NC(=O)[C@H](C(C)C)NC(=O)[C@H](CC(N)=O)NC(=O)[C@H](C(C)C)NC(=O)[C@H](C(C)C)NC(=O)[C@H](Cc2cccc3ccccc23)NC(=O)[C@H](Cc2ccccc2)NC(=O)CSC[C@@H](C(=O)NCC(N)=O)NC(=O)[C@H](C(C)C)NC(=O)[C@H](Cc2c[nH]cn2)NC(=O)[C@H](Cc2ccncc2)NC(=O)[C@H](Cc2cccc3ccccc23)NC1=O` [TGFb1_009] ({CH2CO}-F[1Nal]VVNV[4Pal]DD[Gly(NCH2CH2Ph)]V[1Nal][4Pal]HVCG-NH2; thioether N-16), the inhibition at 75 pM is 2.7%, the inhibition at 0.00075 µM was found to be 53%, the inhibition at 0.0075 µM worked out at 94.8% and the inhibition at 0.075 µM amounted to 99.6%.
In the case of `CC(C)[C@@H]1NC(=O)CN(CCc2ccccc2)C(=O)[C@H](CC(=O)O)NC(=O)[C@H](CC(=O)O)NC(=O)[C@H](Cc2ccncc2)NC(=O)[C@H](C(C)C)NC(=O)[C@H](CC(N)=O)NC(=O)[C@H](CCCCNC(=O)N2CCN(CC(=O)O)CC2)NC(=O)[C@H](C(C)C)NC(=O)[C@H](Cc2cccc3ccccc23)NC(=O)[C@H](Cc2ccccc2)NC(=O)CSC[C@@H](C(=O)NCC(N)=O)NC(=O)[C@H](C(C)C)NC(=O)[C@H](Cc2c[nH]cn2)NC(=O)[C@H](Cc2ccc(O)cc2)NC(=O)[C@H](Cc2cccc3ccccc23)NC1=O` [TGFb1_010] ({CH2CO}-F[1Nal]VK([CO-Piperazinyl(4-CH2COOH)])NV[4Pal]DD[Gly(NCH2CH2Ph)]V[1Nal]YHVCG-NH2; thioether N-16), the inhibition at 75 pM is 2%, the inhibition at 0.00075 µM came out at 63.8%, the inhibition at 0.0075 µM is 97.9% and the inhibition at 0.075 µM was 99.9%.
Turning to `CC(C)[C@@H]1NC(=O)CN(CCc2ccccc2)C(=O)[C@H](CCCCNC(=O)N2CCN(CC(=O)O)CC2)NC(=O)[C@H](CC(=O)O)NC(=O)[C@H](Cc2ccncc2)NC(=O)[C@H](C(C)C)NC(=O)[C@H](CC(N)=O)NC(=O)[C@H](C(C)C)NC(=O)[C@H](C(C)C)NC(=O)[C@H](Cc2cccc3ccccc23)NC(=O)[C@H](Cc2ccccc2)NC(=O)CSC[C@@H](C(=O)NCC(N)=O)NC(=O)[C@H](C(C)C)NC(=O)[C@H](Cc2c[nH]cn2)NC(=O)[C@H](Cc2ccc(O)cc2)NC(=O)[C@H](Cc2cccc3ccccc23)NC1=O` [TGFb1_011] ({CH2CO}-F[1Nal]VVNV[4Pal]DK([CO-Piperazinyl(4-CH2COOH)])[Gly(NCH2CH2Ph)]V[1Nal]YHVCG-NH2; thioether N-16), the inhibition at 75 pM amounted to 6.1%, the inhibition at 0.00075 µM was found to be 76.3%, the inhibition at 0.0075 µM turned out to be 97.9% and the inhibition at 0.075 µM is 100%.
As to `CC(C)[C@@H]1NC(=O)CN(CCc2ccccc2)C(=O)[C@H](CC(=O)O)NC(=O)[C@H](CC(=O)O)NC(=O)[C@H](Cc2ccncc2)NC(=O)[C@H](C(C)C)NC(=O)[C@H](CC(N)=O)NC(=O)[C@H](CCCCNC(=O)N(C)C[C@H](O)[C@@H](O)[C@H](O)[C@H](O)CO)NC(=O)[C@H](C(C)C)NC(=O)[C@H](Cc2cccc3ccccc23)NC(=O)[C@H](Cc2ccccc2)NC(=O)CSC[C@@H](C(=O)NCC(N)=O)NC(=O)[C@H](C(C)C)NC(=O)[C@H](Cc2c[nH]cn2)NC(=O)[C@H](Cc2ccc(O)cc2)NC(=O)[C@H](Cc2cccc3ccccc23)NC1=O` [TGFb1_014] ({CH2CO}-F[1Nal]VK([CO-Meglumine])NV[4Pal]DD[Gly(NCH2CH2Ph)]V[1Nal]YHVCG-NH2; thioether N-16), the inhibition at 75 pM was determined as 0%, the inhibition at 0.00075 µM turned out to be 64.8%, the inhibition at 0.0075 µM came to 97.2% and the inhibition at 0.075 µM came to 98.8%.
`CC(C)[C@@H]1NC(=O)CN(CCc2ccccc2)C(=O)[C@H](CCCCNC(=O)N(C)C[C@H](O)[C@@H](O)[C@H](O)[C@H](O)CO)NC(=O)[C@H](CC(=O)O)NC(=O)[C@H](Cc2ccncc2)NC(=O)[C@H](C(C)C)NC(=O)[C@H](CC(N)=O)NC(=O)[C@H](C(C)C)NC(=O)[C@H](C(C)C)NC(=O)[C@H](Cc2cccc3ccccc23)NC(=O)[C@H](Cc2ccccc2)NC(=O)CSC[C@@H](C(=O)NCC(N)=O)NC(=O)[C@H](C(C)C)NC(=O)[C@H](Cc2c[nH]cn2)NC(=O)[C@H](Cc2ccc(O)cc2)NC(=O)[C@H](Cc2cccc3ccccc23)NC1=O` [TGFb1_015] ({CH2CO}-F[1Nal]VVNV[4Pal]DK([CO-Meglumine])[Gly(NCH2CH2Ph)]V[1Nal]YHVCG-NH2; thioether N-16): the inhibition at 75 pM worked out at 0%, the inhibition at 0.00075 µM stood at 76.9%, the inhibition at 0.0075 µM worked out at 98.7% and the inhibition at 0.075 µM is 98.4%.

Source of the values: US20250034212A1, “PEPTIDE” (PEPTIDREAM INC., priority 2021, published 2025).
